# Results: US12491251B2, “Degraders of cyclin-dependent kinase 7 (CDK7) and uses thereof” (DANA-FARBER CANCER INSTITUTE, INC., priority 2019, dated 2025)
# Biological target: T1, CDK7 (Homo sapiens, UniProt P50613)
# T1 construct: endogenous in cells; host or cells: Jurkat cells
# Assay: CDK7 degradation in Jurkat cells by immunoblot
# Format: cell-based
# Details: 1 μM compound, 6 hours, vs DMSO
# Procedure: Jurkat cells were treated with DMSO or 1 μM of compounds 1-26 for 6 hours. Cells were then lysed in radioimmunoprecipitation assay (RIPA) buffer (Sigma® Life Science) containing protease/phosphatase inhibitor cocktail (Roche). The protein concentrations were measured by bicinchoninic acid assay (BCA) analysis (Pierce™). Equal amounts of protein were resolved by 4-12% Tris-Base gels (Invitrogen™), and then transferred to the immunoblot polyvinylidene difluoride (PVDF) membrane (BioRad), and immunoblotted with primary antibodies against CDK7 (cell signaling) and glyceraldehyde 3-phosphate dehydrogenase (GAPDH) (Cell Signaling Technology®), and then immunoblotted with IRDye®800-labeled goat anti-rabbit immunoglobulin G (IgG) and IRDye®680-labeled goat anti-mouse IgG (LI-COR®) secondary antibodies. The membranes were detected on an Odyssey® CLx system.
# T1 sequence (P50613 2-346 limits assumed): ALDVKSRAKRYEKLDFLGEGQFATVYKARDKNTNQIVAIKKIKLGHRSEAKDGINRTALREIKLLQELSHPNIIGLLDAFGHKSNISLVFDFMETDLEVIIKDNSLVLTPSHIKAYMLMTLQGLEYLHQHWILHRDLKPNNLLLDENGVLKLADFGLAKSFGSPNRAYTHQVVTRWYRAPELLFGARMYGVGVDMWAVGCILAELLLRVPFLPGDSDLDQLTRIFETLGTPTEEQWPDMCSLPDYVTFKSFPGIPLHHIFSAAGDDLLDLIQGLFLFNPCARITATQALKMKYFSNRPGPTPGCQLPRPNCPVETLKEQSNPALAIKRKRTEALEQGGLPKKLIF
# T1 sequence (P51946 whole entry partner): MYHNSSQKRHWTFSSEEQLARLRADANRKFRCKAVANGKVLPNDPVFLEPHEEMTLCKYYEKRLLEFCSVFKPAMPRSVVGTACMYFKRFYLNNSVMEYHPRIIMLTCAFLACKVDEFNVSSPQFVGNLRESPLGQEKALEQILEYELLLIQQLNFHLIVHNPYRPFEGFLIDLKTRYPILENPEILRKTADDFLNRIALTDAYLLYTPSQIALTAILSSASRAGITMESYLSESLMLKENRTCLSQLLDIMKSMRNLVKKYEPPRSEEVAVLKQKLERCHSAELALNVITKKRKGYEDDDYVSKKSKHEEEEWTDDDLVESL
# T1 sequence (P51948 whole entry partner): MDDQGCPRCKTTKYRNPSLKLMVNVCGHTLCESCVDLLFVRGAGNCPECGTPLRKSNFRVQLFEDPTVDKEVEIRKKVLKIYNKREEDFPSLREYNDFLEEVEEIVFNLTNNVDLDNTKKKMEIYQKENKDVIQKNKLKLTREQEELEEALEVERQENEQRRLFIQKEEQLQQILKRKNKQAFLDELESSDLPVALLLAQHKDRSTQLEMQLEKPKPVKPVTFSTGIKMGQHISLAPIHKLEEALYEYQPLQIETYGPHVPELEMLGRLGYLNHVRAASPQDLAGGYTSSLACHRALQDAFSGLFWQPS
row,Structure (SMILES),degradation of CDK7 (immunoblot)
1,"CN(C)C[C@@H](NC(=O)N1Cc2c(NC(=O)c3ccc(C(=O)NCCOCCOCCOCCNc4cccc5c4C(=O)N(C4CCC(=O)NC4=O)C5=O)cc3)n[nH]c2C1(C)C)c1ccccc1 (stereo partly drawn) [Compound 1, N1-(5-(((S)-2-(dimethylamino)-1-phenylethyl)carbamoyl)-6,6-dimethyl-1,4,5,6-tetrahydropyrrolo[3,4-c]pyrazol-3-yl)-N4-(2-(2-(2-(2-((2-(2,6-dioxopiperidin-3-yl)-1,3-dioxoisoindolin-4-yl)amino)ethoxy)ethoxy)ethoxy)ethyl)terephthalamide]",induced the degradation of CDK7
2,Cc1ncsc1-c1ccc([C@H](C)NC(=O)[C@@H]2C[C@@H](O)CN2C(=O)[C@@H](NC(=O)CCOCCOCCNC(=O)c2ccc(C(=O)Nc3n[nH]c4c3CN(C(=O)N[C@H](CN(C)C)c3ccccc3)C4(C)C)cc2)C(C)(C)C)cc1 [Compound 6],induced the degradation of CDK7
3,"CN(C)C[C@@H](NC(=O)N1Cc2c(NC(=O)c3ccc(C(=O)NCCCCC#Cc4cccc5c4C(=O)N(C4CCC(=O)NC4=O)C5=O)cc3)n[nH]c2C1(C)C)c1ccccc1 (stereo partly drawn) [Compound 7, N^1-(5-(((S)-2-(dimethylamino)-1-phenylethyl)carbamoyl)-6,6-dimethyl-1,4,5,6-tetrahydropyrrolo[3,4-c]pyrazol-3-yl)-N^4-(6-(2-(2,6-dioxopiperidin-3-yl)-1,3-dioxoisoindolin-4-yl)hex-5-yn-1-yl)terephthalamide]",induced the degradation of CDK7
4,"CN(C)C[C@@H](NC(=O)N1Cc2c(NC(=O)c3ccc(C(=O)NCCCCCOc4cccc5c4C(=O)N(C4CCC(=O)NC4=O)C5=O)cc3)n[nH]c2C1(C)C)c1ccccc1 (stereo partly drawn) [Compound 8, N^1-(5-(((S)-2-(dimethylamino)-1-phenylethyl)carbamoyl)-6,6-dimethyl-1,4,5,6-tetrahydropyrrolo[3,4-c]pyrazol-3-yl)-N^4-(5-((2-(2,6-dioxopiperidin-3-yl)-1,3-dioxoisoindolin-4-yl)oxy)pentyl)terephthalamide]",induced the degradation of CDK7
5,"CN(C)C[C@@H](NC(=O)N1Cc2c(NC(=O)c3ccc(C(=O)NCCCCCCCCOc4cccc5c4C(=O)N(C4CCC(=O)NC4=O)C5=O)cc3)n[nH]c2C1(C)C)c1ccccc1 (stereo partly drawn) [Compound 9, N^1-(5-(((S)-2-(dimethylamino)-1-phenylethyl)carbamoyl)-6,6-dimethyl-1,4,5,6-tetrahydropyrrolo[3,4-c]pyrazol-3-yl)-N^4-(8-((2-(2,6-dioxopiperidin-3-yl)-1,3-dioxoisoindolin-4-yl)oxy)octyl)terephthalamide]",induced the degradation of CDK7
6,"CN(C)C[C@@H](NC(=O)N1Cc2c(NC(=O)c3ccc(NC(=O)CCCCCCCCCCOc4cccc5c4C(=O)N(C4CCC(=O)NC4=O)C5=O)cc3)n[nH]c2C1(C)C)c1ccccc1 (stereo partly drawn) [Compound 10, N—((S)-2-(dimethylamino)-1-phenylethyl)-3-(4-(11-((2-(2,6-dioxopiperidin-3-yl)-1,3-dioxoisoindolin-4-yl)oxy)undecanamido)benzamido)-6,6-dimethyl-4,6-dihydropyrrolo[3,4-c]pyrazole-5(1H)-carboxamide]",induced the degradation of CDK7
7,"Cc1ncsc1-c1ccc([C@H](C)NC(=O)[C@@H]2C[C@@H](O)CN2C(=O)[C@@H](NC(=O)CCCCCNC(=O)c2ccc(C(=O)Nc3n[nH]c4c3CN(C(=O)N[C@H](CN(C)C)c3ccccc3)C4(C)C)cc2)C(C)(C)C)cc1 [Compound 12, N^1-(5-(((S)-2-(dimethylamino)-1-phenylethyl)carbamoyl)-6,6-dimethyl-1,4,5,6-tetrahydropyrrolo[3,4-c]pyrazol-3-yl)-N^4-(6-(((S)-1-((2S,4R)-4-hydroxy-2-(((S)-1-(4-(4-methylthiazol-5-yl)phenyl)ethyl)carbamoyl)pyrrolidin-1-yl)-3,3-dimethyl-1-oxobutan-2-yl)amino)-6-oxohexyl)terephthalamide]",induced the degradation of CDK7
8,"CN(C)C[C@@H](NC(=O)N1Cc2c(NC(=O)c3ccc(C(=O)NCCCCCCc4cccc5c4C(=O)N(C4CCC(=O)NC4=O)C5=O)cc3)n[nH]c2C1(C)C)c1ccccc1 (stereo partly drawn) [Compound 13, N^1-(5-(((S)-2-(dimethylamino)-1-phenylethyl)carbamoyl)-6,6-dimethyl-1,4,5,6-tetrahydropyrrolo[3,4-c]pyrazol-3-yl)-N^4-(6-(2-(2,6-dioxopiperidin-3-yl)-1,3-dioxoisoindolin-4-yl)hexyl)terephthalamide]",induced the degradation of CDK7
9,"Cc1ncsc1-c1ccc([C@H](C)NC(=O)[C@@H]2C[C@@H](O)CN2C(=O)[C@@H](NC(=O)CCOCCNC(=O)c2ccc(C(=O)Nc3n[nH]c4c3CN(C(=O)N[C@H](CN(C)C)c3ccccc3)C4(C)C)cc2)C(C)(C)C)cc1 [Compound 15, N^1-(5-(((S)-2-(dimethylamino)-1-phenylethyl)carbamoyl)-6,6-dimethyl-1,4,5,6-tetrahydropyrrolo[3,4-c]pyrazol-3-yl)-N^4-(2-(3-(((S)-1-((2S,4R)-4-hydroxy-2-(((S)-1-(4-(4-methylthiazol-5-yl)phenyl)ethyl)carbamoyl)pyrrolidin-1-yl)-3,3-dimethyl-1-oxobutan-2-yl)amino)-3-oxopropoxy)ethyl)terephthalamide]",induced the degradation of CDK7
10,"CN(C)C[C@@H](NC(=O)N1Cc2c(NC(=O)c3ccc(NC(=O)CCCNc4cccc5c4C(=O)N(C4CCC(=O)NC4=O)C5=O)cc3)n[nH]c2C1(C)C)c1ccccc1 (stereo partly drawn) [Compound 16, N—((S)-2-(dimethylamino)-1-phenylethyl)-3-(4-(4-((2-(2,6-dioxopiperidin-3-yl)-1,3-dioxoisoindolin-4-yl)amino)butanamido)benzamido)-6,6-dimethyl-4,6-dihydropyrrolo[3,4-c]pyrazole-5(1H)-carboxamide]",induced the degradation of CDK7
11,"CN(C)C[C@@H](NC(=O)N1Cc2c(NC(=O)c3ccc(C(=O)NCCCCCNc4ccc5c(c4)C(=O)N(C4CCC(=O)NC4=O)C5=O)cc3)n[nH]c2C1(C)C)c1ccccc1 (stereo partly drawn) [Compound 21, N^1-(5-(((S)-2-(dimethylamino)-1-phenylethyl)carbamoyl)-6,6-dimethyl-1,4,5,6-tetrahydropyrrolo[3,4-c]pyrazol-3-yl)-N^4-(5-((2-(2,6-dioxopiperidin-3-yl)-1,3-dioxoisoindolin-5-yl)amino)pentyl)terephthalamide]",induced the degradation of CDK7
12,"Cc1ncsc1-c1ccc([C@H](C)NC(=O)[C@@H]2C[C@@H](O)CN2C(=O)[C@@H](NC(=O)CCCCCCNC(=O)c2ccc(C(=O)Nc3n[nH]c4c3CN(C(=O)N[C@H](CN(C)C)c3ccccc3)C4(C)C)cc2)C(C)(C)C)cc1 [Compound 22, N^1-(5-(((S)-2-(dimethylamino)-1-phenylethyl)carbamoyl)-6,6-dimethyl-1,4,5,6-tetrahydropyrrolo[3,4-c]pyrazol-3-yl)-N^4-(7-(((S)-1-((2S,4R)-4-hydroxy-2-(((S)-1-(4-(4-methylthiazol-5-yl)phenyl)ethyl)carbamoyl)pyrrolidin-1-yl)-3,3-dimethyl-1-oxobutan-2-yl)amino)-7-oxoheptyl)terephthalamide]",induced the degradation of CDK7
13,"Cc1ncsc1-c1ccc([C@H](C)NC(=O)[C@@H]2C[C@@H](O)CN2C(=O)[C@@H](NC(=O)CCCCCCCNC(=O)c2ccc(C(=O)Nc3n[nH]c4c3CN(C(=O)N[C@H](CN(C)C)c3ccccc3)C4(C)C)cc2)C(C)(C)C)cc1 [Compound 23, N^1-(5-(((S)-2-(dimethylamino)-1-phenylethyl)carbamoyl)-6,6-dimethyl-1,4,5,6-tetrahydropyrrolo[3,4-c]pyrazol-3-yl)-N^4-(8-(((S)-1-((2S,4R)-4-hydroxy-2-(((S)-1-(4-(4-methylthiazol-5-yl)phenyl)ethyl)carbamoyl)pyrrolidin-1-yl)-3,3-dimethyl-1-oxobutan-2-yl)amino)-8-oxooctyl)terephthalamide]",induced the degradation of CDK7
14,"Cc1ncsc1-c1ccc([C@H](C)NC(=O)[C@@H]2C[C@@H](O)CN2C(=O)[C@@H](NC(=O)CCOCCOCCOCCNC(=O)c2ccc(C(=O)Nc3n[nH]c4c3CN(C(=O)N[C@H](CN(C)C)c3ccccc3)C4(C)C)cc2)C(C)(C)C)cc1 [Compound 25, N^1-(5-(((S)-2-(dimethylamino)-1-phenylethyl)carbamoyl)-6,6-dimethyl-1,4,5,6-tetrahydropyrrolo[3,4-c]pyrazol-3-yl)-N^4—((S)-14-((2S,4R)-4-hydroxy-2-(((S)-1-(4-(4-methylthiazol-5-yl)phenyl)ethyl)carbamoyl)pyrrolidine-1-carbonyl)-15,15-dimethyl-12-oxo-3,6,9-trioxa-13-azahexadecyl)terephthalamide]",induced the degradation of CDK7
15,"CN(C)C[C@@H](NC(=O)N1Cc2c(NC(=O)c3ccc(C(=O)NCCOCCOCCNc4cccc5c4C(=O)N(C4CCC(=O)NC4=O)C5=O)cc3)n[nH]c2C1(C)C)c1ccccc1 (stereo partly drawn) [Compound 26, N^1-(5-(((S)-2-(dimethylamino)-1-phenylethyl)carbamoyl)-6,6-dimethyl-1,4,5,6-tetrahydropyrrolo[3,4-c]pyrazol-3-yl)-N^4-(2-(2-(2-((2-(2,6-dioxopiperidin-3-yl)-1,3-dioxoisoindolin-4-yl)amino)ethoxy)ethoxy)ethyl)terephthalamide]",induced the degradation of CDK7
